Measurements taken from patent publication US10238658B2, “1-pyrazolyl-3-(4-((2-anilinopyrimidin-4-yl) oxy) napththalen-1-yl) ureas as p38 MAP kinase inhibitors” (Respivert Limited, priority 2011, dated 2019).

Columns and labels:
Type in all cases: cell-based
TNFα [1] = assay: LPS-induced TNFα release in THP-1 cells; conditions: Homo sapiens, THP-1, THP1 cells
Method: THP-1 cells, a human monocytic cell line, were stimulated with 3 μg/mL of LPS (from E. Coli; 0111:B4, Sigma) for 4 hr and the supernatant collected for determination of the TNFα concentration by sandwich ELISA (Duo-set, R&D systems). The inhibition of TNFα production was calculated at each concentration by comparison with vehicle control.

TNFα [2] = assay: LPS-induced TNFα release in d-U937 cells; conditions: Homo sapiens, dU937, dU937 cells; relative to 10 μg/mL BIRB796; read-out: LPS Induced Release TNFα REC50 (dU937)
Method: (§1) U937 cells, a human monocytic cell line, were differentiated into macrophage-type cells by incubation with PMA (100 ng/mL) for 48 to 72 hr. Cells were pre-incubated with final concentrations of test compound for 2 hr and were then stimulated with LPS (0.1 μg/mL; from E. Coli: O111:B4, Sigma) for 4 hr. The supernatant was collected for determination of TNFα and IL-8 concentrations by sandwich ELISA (Duo-set, R&D systems). […] The relative 50% effective concentration (REC50) was determined from the resultant concentration-response curve. The inhibition of IL-8 production was calculated at each concentration of test compound by comparison with vehicle control.

IL-8 [3] = assay: LPS-induced IL-8 release in d-U937 cells; conditions: Homo sapiens, dU937, dU937 cells
Method: as §1

IL-8 [4] = assay: Rhinovirus-induced IL-8 release in BEAS2B cells; conditions: Homo sapiens, BEAS-2B, at 0.04 μg/mL; read-out: HRV IL-8 (BEAS2B) % inhibition
Method: Human rhinovirus RV16 was obtained from the American Type Culture Collection (Manassas, Va.). Viral stocks were generated by infecting Hela cells with HRV until 80% of the cells were cytopathic.
BEAS2B cells were infected with HRV at an MOI of 5 and incubated for 2 hr at 33° C. with gentle shaking for to promote absorption. The cells were then washed with PBS, fresh media added and the cells were incubated for a further 72 hr. The supernatant was collected for assay of IL-8 concentrations using a Duoset ELISA development kit (R&D systems, Minneapolis, Minn.). […]

HRV16 = HRV16 induced CPE in MRC5 cells; conditions: Human rhinovirus sp., HRV16, MRC5, at 0.04 μg/mL; read-out: HRV CPE (MRC5) % inhibition
Method: The supernatants were aspirated, and then fresh media added followed by incubation for 4 days. Where appropriate, cells were pre-incubated with compound or DMSO for 2 hr, and the compounds and DMSO added again after washout of the virus.
The percentage inhibition for each well was calculated. The IC50 value was calculated from the concentration-response curve generated by the serial dilutions of the test compounds.

PBMC = assay: Cell mitosis assay; conditions: Homo sapiens; for inhibition at 5 µg/mL: read-out: Mitosis Assay % inhibition in PBMC Cells at concn 5 μg/mL; for inhibition at 1 µg/mL: read-out: Mitosis Assay % inhibition in PBMC Cells at concn 1 μg/mL
Method: Peripheral blood mononucleocytes (PBMCs) from healthy subjects were separated from whole blood (Quintiles, London, UK) using a density gradient (Histopaque®-1077, Sigma-Aldrich, Poole, UK). The PBMCs (3 million cells per sample) were subsequently treated with 2% PHA (Sigma-Aldrich, Poole, UK) for 48 hr, followed by a 20 hr exposure to varying concentrations of test compounds. At 2 hr before collection, PBMCs were treated with demecolcine (0.1 μg/mL; Invitrogen, Paisley, UK,) to arrest cells in metaphase. To observe mitotic cells, PBMCs were permeabilised and fixed by adding Intraprep (50 μL; Beckman Coulter, France), and stained with anti-phospho-histone 3 ([…]; #9701; Cell Signalling, Danvers, Mass.) and propidium iodide (1 mg/mL; Sigma-Aldrich, Poole, UK,) as previously described (Muehlbauer P. A. and Schuler M. J., Mutation Research, 2003, 537:117-130). Fluorescence was observed using an ATTUNE flow cytometer (Invitrogen, Paisley, UK), gating for lymphocytes.

SMILES	IC50 (TNFα [1]) [nM]	EC50 (TNFα [2]) [nM]	IC50 (IL-8 [3]) [nM]	inhibition at 0.04 µg/mL (IL-8 [4]) [%]	inhibition at 0.04 µg/mL (HRV16) [%]	inhibition at 5 µg/mL (PBMC) [%]	inhibition at 1 µg/mL (PBMC) [%]
Cc1ccc(-n2nc(C(C)(C)C)cc2NC(=O)Nc2ccc(Oc3ccnc(Nc4ccc(O)cc4O)n3)c3ccccc23)cc1 [Example 32, 1-(3-(tert-butyl)-1-(p-tolyl)-1H-pyrazol-5-yl)-3-(4-((2-((2,4-dihydroxyphenyl)amino)pyrimidin-4-yl)oxy)naphthalen-1-yl)urea]	14	12	9.7	100	26	33	–
COc1ccc(-n2nc(C(C)(C)C)cc2NC(=O)Nc2ccc(Oc3ccnc(Nc4ccccc4)n3)c3ccccc23)cc1 [Example 7, 1-(3-(tert-butyl)-1-(4-methoxyphenyl)-1H-pyrazol-5-yl)-3-(4-((2-(phenylamino)pyrimidin-4-yl)oxy)naphthalen-1-yl)urea]	10	1.7	2.1	100	≤ 0	10.2	–
COc1ccc(-n2nc(C(C)(C)C)cc2NC(=O)Nc2ccc(Oc3ccnc(Nc4ccc(O)cc4)n3)c3ccccc23)cc1 [Example 33, 1-(3-(tert-butyl)-1-(4-methoxyphenyl)-1H-pyrazol-5-yl)-3-(4-((2-((4-hydroxyphenyl)amino)pyrimidin-4-yl)oxy)naphthalen-1-yl)urea]	0.5	7.4	6.3	100	44	67.2	–
COc1ccc(Nc2nccc(Oc3ccc(NC(=O)Nc4cc(C(C)(C)C)nn4-c4ccc(C)cc4)c4ccccc34)n2)cc1OC [Example 27, 1-(3-(tert-butyl)-1-(p-tolyl)-1H-pyrazol-5-yl)-3-(4-((2-((3,4-dimethoxyphenyl)amino)pyrimidin-4-yl)oxy)naphthalen-1-yl)urea]	0.5	0.54	2	100	51	11.2	–

The next lines start with results.

IC50 (TNFα [1]) [nM]	EC50 (TNFα [2]) [nM]	IC50 (IL-8 [3]) [nM]	SMILES	inhibition at 0.04 µg/mL (IL-8 [4]) [%]	inhibition at 0.04 µg/mL (HRV16) [%]	inhibition at 5 µg/mL (PBMC) [%]	inhibition at 1 µg/mL (PBMC) [%]
225	227	235	COc1ccc(Nc2nccc(Oc3ccc(NC(=O)Nc4cc(C(C)(C)C)nn4-c4ccc(C)cc4)c4ccccc34)n2)c(OC)c1 [Example 8, 1-(3-(tert-butyl)-1-(p-tolyl)-1H-pyrazol-5-yl)-3-(4-((2-((2,4-dimethoxyphenyl)amino)pyrimidin-4-yl)oxy)naphthalen-1-yl)urea]	100	100	–	15.6
0.4	0.84	1.5	COc1cc(Nc2nccc(Oc3ccc(NC(=O)Nc4cc(C(C)(C)C)nn4-c4ccc(C)cc4)c4ccccc34)n2)ccc1O [Example 25, 1-(3-(tert-butyl)-1-(p-tolyl)-1H-pyrazol-5-yl)-3-(4-((2-((4-hydroxy-3-methoxyphenyl)amino)pyrimidin-4-yl)oxy)naphthalen-1-yl)urea]	100	–	63.5	29.1
